Experimental data published in patent US20110224231A1, “Novel Lactams as Beta Secretase Inhibitors” (Pfizer Inc., priority 2008, published 2011).
Counter-ions that a name gives are not always drawn.

Target: T1, soluble human BACE (Homo sapiens, UniProt P56817)
T1 construct: cells secreting human recombinant soluble BACE; made in house; conditioned medium
Assay: BACE activity Cell Free Assay (ELISA of cleaved synthetic APP substrate)
Format: biochemical
Experimental: A synthetic APP substrate that can be cleaved by beta˜secretase and having N-terminal biotin is used to assay beta-secretase activity in the presence or absence of the inhibitory compounds. […] The substrate and test compounds are added to 384 well polypropylene plates. The reaction is initiated by the addition of soluble BACE enzyme to a final volume of 12.5 μL per well. The final assay conditions are: 0.001˜300 μM compound inhibitor, 0.05M sodium acetate (pH 4.5), 3 μM substrate, soluble human BACE, and 2% DMSO. Concentrated conditioned media from cells secreting human recombinant soluble BACE was titrated to provide a source of BACE enzyme. The cell media can be used as either a crude BACE prep or BACE can be purified using any number of techniques, including immobilized BACE inhibitor purification columns. The assay mixture is incubated for 1 hour at 37° C., and the reaction is quenched by the addition of an equal volume of 0.1M Tris, pH 8. Half of the quenched mix is incubated on clear streptavidin coated 384 well polystyrene plates for 1 hour. An ELISA is then performed using an in˜house antibody that specifically recognizes the new C˜terminus created after cleavage by BACE. […] (These polyclonal antibodies were raised in rabbits by immunizing with antigen comprised of six amino acid residues present at the carboxy terminus of the wild-type soluble APPbeta sequence (NH2-ISEVKM-COOH) or seven amino acid residues present at the carboxy terminus of the Swedish mutation at the beta cleavage site (NH2-EISEVNL˜COOH) conjugated to keyhole limpet hemacyanin by methods known to those skilled in the art.) A secondary anti˜species Horseradish Peroxidase (HRP) conjugated antibody is then utilized. The readout, following assay development with TMB substrate and quenching with 0.09M sulfuric acid, is absorbance at 450 nm.

T1 sequence (P56817 46-457 limits assumed): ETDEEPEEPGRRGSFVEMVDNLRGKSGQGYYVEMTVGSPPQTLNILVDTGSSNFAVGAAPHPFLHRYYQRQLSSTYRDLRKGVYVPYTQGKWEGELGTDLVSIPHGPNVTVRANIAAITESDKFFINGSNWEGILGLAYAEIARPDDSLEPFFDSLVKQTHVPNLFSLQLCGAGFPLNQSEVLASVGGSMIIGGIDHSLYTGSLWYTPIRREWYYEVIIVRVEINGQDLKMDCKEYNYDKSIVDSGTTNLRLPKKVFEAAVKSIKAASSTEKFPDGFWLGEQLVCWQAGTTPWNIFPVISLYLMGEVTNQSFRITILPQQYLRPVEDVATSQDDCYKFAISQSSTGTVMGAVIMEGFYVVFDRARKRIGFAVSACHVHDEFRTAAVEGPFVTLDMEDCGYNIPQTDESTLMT

SMILES	IC50
CC1CC2(C=CC(=O)N2c2cccc(F)c2)CCN1Cc1c[nH]c2ccc(OCc3ccccc3)cc12 (racemic) [Example 62, Racemic (5R,7S),(5S,7R)-8-{[5-(benzyloxy)-1H-indol-3-yl]methyl}-1-(3-fluorophenyl)-7-methyl-1,8-diazaspiro[4.5]dec-3-en-2-one]	10 to 100 µM
CC1CC2(C=CC(=O)N2c2cccc(F)c2)CCN1Cc1c[nH]c2cc(F)ccc12 (racemic) [Example 63, Racemic (5R,7S),(5S,7R)-8-[(6-fluoro-1H-indol-3-yl)methyl]-1-(3-fluorophenyl)-7-methyl-1,8-diazaspiro[4.5]dec-3-en-2-one]	10 to 100 µM
CC1CC2(C=CC(=O)N2c2cccc(F)c2)CCN1Cc1cccc(-n2cccn2)c1 (racemic) [Example 64, Racemic (5R,7S),(5S,7R)-1-(3-fluorophenyl)-7-methyl-8-[3-(1H-pyrazol-1-yl)benzyl]-1,8-diazaspiro[4.5]dec-3-en-2-one]	10 to 100 µM
CC1CC2(C=CC(=O)N2c2cccc(F)c2)CCN1Cc1n[nH]c2ccc(Cl)cc12 (racemic) [Example 65, Racemic (5R,7S),(5S,7R)-8-[(5-chloro-1H-indazol-3-yl)methyl]-1-(3-fluorophenyl)-7-methyl-1,8-diazaspiro[4.5]dec-3-en-2-one]	10 to 100 µM
Cc1ccc2c(CN3CCC4(C=CC(=O)N4c4cccc(F)c4)CC3C)c[nH]c2c1 (racemic) [Example 66, Racemic (5R,7S),(5S,7R)-1-(3-fluorophenyl)-7-methyl-8-[(6-methyl-1H-indol-3-yl)methyl]-1,8-diazaspiro[4.5]dec-3-en-2-one]	10 to 100 µM
CC1CC2(C=CC(=O)N2c2cccc(F)c2)CCN1Cc1c[nH]c2cc(C(F)(F)F)ccc12 (racemic) [Example 67, Racemic (5R,7S),(5S,7R)-1-(3-fluorophenyl)-7-methyl-8-{[6-(trifluoromethyl)-1H-indol-3-yl]methyl}-1,8-diazaspiro [4.5]dec-3-en-2-one]	10 to 100 µM
CC1CC2(C=CC(=O)N2c2cccc(F)c2)CCN1Cc1cccc(OCc2nc(C3CC3)no2)c1 (racemic) [Example 68, Racemic (5R,7S),(5S,7R)-8-{3-[(3-cyclopropyl-1,2,4-oxadiazol-5-yl)methoxy]benzyl}-1-(3-fluorophenyl)-7-methyl-1,8-diazaspiro[4.5]dec-3-en-2-one]	10 to 100 µM
CC(=O)Nc1ccc(CN2CCC3(CCC(=O)N3c3cccc(F)c3)CC2C)cc1 (racemic) [Example 69, Racemic N-(4-{[(5R,7S),(5S,7R)-1-(3-fluorophenyl)-7-methyl-2-oxo-1,8-diazaspiro[4.5]dec-8-yl]methyl}phenyl)acetamide]	10 to 100 µM
CC1CC2(CCC(=O)N2c2cccc(F)c2)CCN1Cc1c[nH]c2ccc(Cl)cc12 (racemic) [Example 70, Racemic (5R,7S),(5S,7R)-8-[(5-chloro-1H-indol-3-yl)methyl]-1-(3-fluorophenyl)-7-methyl-1,8-diazaspiro[4.5]decan-2-one]	10 to 100 µM
CC1CC2(C=CC(=O)N2c2cccc(F)c2)CCN1Cc1nc(-c2cccc(Cl)c2)cs1 (racemic) [Example 71, Racemic (5R,7S),(5S,7R)-8-{[4-(3-chlorophenyl)-1,3-thiazol-2-yl]methyl}-1-(3-fluorophenyl)-7-methyl-1,8-diazaspiro[4.5]dec-3-en-2-one]	10 to 100 µM
COc1cccc(-c2csc(CN3CCC4(C=CC(=O)N4c4cccc(F)c4)CC3C)n2)c1 (racemic) [Example 72, Racemic (5R,7S),(5S,7R)-1-(3-fluorophenyl)-8-{[4-(3-methoxyphenyl)-1,3-thiazol-2-yl]methyl}-7-methyl-1,8-diazaspiro[4.5]dec-3-en-2-one]	10 to 100 µM
COc1ccc(-c2csc(CN3CCC4(C=CC(=O)N4c4cccc(F)c4)CC3C)n2)cc1 (racemic) [Example 73, Racemic (5R,7S),(5S,7R)-1-(3-fluorophenyl)-8-{[4-(4-methoxyphenyl)-1,3-thiazol-2-yl]methyl}-7-methyl-1,8-diazaspiro[4.5]dec-3-en-2-one]	10 to 100 µM
CC1CC2(CCC(=O)N2c2cccc(F)c2)CCN1Cc1c[nH]c2cc(F)ccc12 (racemic) [Example 74, Racemic (5R,7S),(5S,7R)-8-[(6-fluoro-1H-indol-3-yl)methyl]-1-(3-fluorophenyl)-7-methyl-1,8-diazaspiro[4.5]decan-2-one]	100 to 300 µM
COC(=O)Nc1ccc(CN2CCC3(CCC(=O)N3c3cccc(F)c3)CC2C)cc1 (racemic) [Example 75, Racemic methyl (4-{[(5R,7S),(5S,7R)-1-(3-fluorophenyl)-7-methyl-2-oxo-1,8-diazaspiro[4.5]dec-8-yl]methyl}phenyl)carbamate]	100 to 300 µM
CC1CC2(CCC(=O)N2c2cccc(F)c2)CCN1Cc1c[nH]c2ccc(C#N)cc12 (racemic) [Example 76, Racemic 3-{[(5R,7S),(5S,7R)-1-(3-fluorophenyl)-7-methyl-2-oxo-1,8-diazaspiro[4.5]dec-8-yl]methyl}-1H-indole-5-carbonitrile]	100 to 300 µM
CC1CC2(CCC(=O)N2c2cccc(F)c2)CCN1Cc1ccnn1CC(F)(F)F (racemic) [Example 77, Racemic (5R,7S),(5S,7R)-1-(3-fluorophenyl)-7-methyl-8-{[1-(2,2,2-trifluoroethyl)-1H-pyrazol-5-yl]methyl}-1,8-diazaspiro[4.5]decan-2-one]	100 to 300 µM
CC1CC2(CCC(=O)N2c2cccc(F)c2)CCN1Cc1n[nH]c2ccc(Cl)cc12 (racemic) [Example 78, Racemic (5R,7S),(5S,7R)-8-[(5-chloro-1H-indazol-3-yl)methyl]-1-(3-fluorophenyl)-7-methyl-1,8-diazaspiro[4.5]decan-2-one]	100 to 300 µM
CC1CC2(CCC(=O)N2c2cccc(F)c2)CCN1Cc1cccc(-n2cccn2)c1 (racemic) [Example 79, Racemic (5R,7S),(5S,7R)-1-(3-fluorophenyl)-7-methyl-8-[3-(1H-pyrazol-1-yl)benzyl]-1,8-diazaspiro[4.5]decan-2-one]	100 to 300 µM
CC1CC2(C=CC(=O)N2c2cccc(F)c2)CCN1Cc1ccc(OC(F)F)c(OC2CC2)c1 (racemic) [Example 80, Racemic (5R,7S),(5S,7R)-8-[3-(cyclopropyloxy)-4-(difluoromethoxy)benzyl]-1-(3-fluorophenyl)-7-methyl-1,8-diazaspiro[4.5]dec-3-en-2-one]	100 to 300 µM
CC1CC2(CCC(=O)N2c2cccc(F)c2)CCN1Cc1nc(-c2cccc(Cl)c2)cs1 (racemic) [Example 81, Racemic (5R,7S),(5S,7R)-8-{[4-(3-chlorophenyl)-1,3-thiazol-2-yl]methyl}-1-(3-fluorophenyl)-7-methyl-1,8-diazaspiro[4.5]decan-2-one]	100 to 300 µM
COC1(OC)CC(c2cccc(CN3CCC4(C=CC(=O)N4c4cccc(F)c4)CC3C)c2)C1 (racemic) [Example 82, Racemic (5R,7S),(5S,7R)-8-[3-(3,3-dimethoxycyclobutyl)benzyl]-1-(3-fluorophenyl)-7-methyl-1,8-diazaspiro[4.5]dec-3-en-2-one]	100 to 300 µM
CC1CC2(C=CC(=O)N2c2cccc(F)c2)CCN1Cc1c[nH]c(-c2ccccc2)n1 (racemic) [Example 83, Racemic (5R,7S),(5S,7R)-1-(3-fluorophenyl)-7-methyl-8-[(2-phenyl-1H-imidazol-4-yl)methyl]-1,8-diazaspiro[4.5]dec-3-en-2-one]	100 to 300 µM
CC1CC2(CCC(=O)N2c2cccc(F)c2)CCN1Cc1c[nH]c2cc(C(F)(F)F)ccc12 (racemic) [Example 84, Racemic (5R,7S),(5S.7R)-1-(3-fluorophenyl)-7-methyl-8-{[6-(trifluoromethyl)-1H-indol-3-yl]methyl}-1,8-diazaspiro[4.5]decan-2-one]	100 to 300 µM
CC1CC2(C=CC(=O)N2c2cccc(F)c2)CCN1Cc1nc(-c2ccccc2Cl)cs1 (racemic) [Example 85, Racemic (5R,7S),(5S,7R)-8-{[4-(2-chlorophenyl)-1,3-thiazol-2-yl]methyl}-1-(3-fluorophenyl)-7-methyl-1,8-diazaspiro[4.5]dec-3-en-2-one]	100 to 300 µM
CC1CC2(CCC(=O)N2c2cccc(F)c2)CCN1Cc1cccc(OCc2nc(C3CC3)no2)c1 (racemic) [Example 86, Racemic (5R,7S),(5S,7R)-8-{3-[(3-cyclopropyl-1,2,4-oxadiazol-5-yl)methoxy]benzyl}-1-(3-fluorophenyl)-7-methyl-1,8-diazaspiro[4.5]decan-2-one]	100 to 300 µM
CC(C)Oc1cccc(CN2CC[C@]3(CC(F)C(=O)N3c3cccc(F)c3)C[C@@H]2C)c1 (mixture of isomers) [Example 90, Racemic (5R,7S)(5S,7R)-3-fluoro-1-(3-fluorophenyl)-8-(3-isopropoxybenzyl)-7˜methyl˜1,8˜diazaspiro[4.5]decan˜2˜one, formate salt]	10 to 100 µM
CC(C)Oc1cccc(CN2CC[C@@]3(C[C@@H]2C)CC(F)(F)C(=O)N3c2cccc(F)c2)c1 (racemic) [Example 91, Racemic (5R,7S)(5S,7R)˜3,3˜difluoro˜1˜(3˜fluorophenyl)˜8˜(3˜isopropoxybenzyl)˜7˜methyl˜1,8˜diazaspiro[4.5]decan˜2˜one, formate salt]	10 to 100 µM
